# Results from article PMC12691635 (Antimicrobial Agents and Chemotherapy, 2025).
# What was measured:
# [1] = single 1,000 mg dose, 2 weeks post-administration, non-infected patients undergoing elective orthopedic surgery; cited from earlier work
# Description: Assessment of optimal antibiotic exposure at the site of the infection is challenging, especially for deep-seated infections, such as bone and joint, and often unbound plasma exposure is used as a worst-case scenario surrogate for target site exposure assuming that only the free (unbound) concentration can distribute to peripheral tissues ([37]). However, drug PK in the peripheral tissues depends not only on protein binding but also on other characteristics, such as drug’s molecular weight and physiochemistry, varying broadly across antibiotic classes ([38]). For dalbavancin, Dunne et al. perf ...
# clinical = conditions: human, in vivo, iv, 1500 mg
# Description: Blood samples obtained during the follow-up visits were processed immediately after extraction, centrifuged at 3,000 g for 10 min and frozen at −80°C until bioanalysis.
# [2] = Population pharmacokinetic analysis (Monolix); format: in vivo, human
# Description: The non-linear mixed-effect modeling software Monolix 2024R1 (Lixoft SAS, a Simulations Plus company) implementing the stochastic approximation expectation maximization algorithm was used for model development ([18]).
# One- and multicompartment models with first-order elimination were tested. All individual parameters were assumed to be log-normally distributed. Inter-individual variability (IIV) was described using an exponential model. To describe residual variability, several error models (constant, proportional, or combined error model) were tested. The most appropriate structural model was selected based on the following criteria: Akaike information criterion, corrected Bayesian information criterion, usual goodness-of-fit plots, and relative standard errors. […] Model internal validation was based on goodness-of-fit plots, including observations versus individual (IPRED) and population predictions (PRED) and plots of normalized prediction distribution error (NPDE) versus PRED and time. A prediction-corrected visual predictive check (pc-VPC) was performed using 500 simulations with the final model ([21]), and non-parametric bootstrapping (n = 1,000) was used for assessing stability and robustness of the final model using Monolix 2024R1.
# [3] = Adverse events attributable to dalbavancin during follow-up; format: in vivo, human; conditions: single 1,500 mg i.v. dose, over administration and during follow-up, including changes in renal function; 20 patients
# [4] = system: chronic prosthetic joint infections caused by Gram-positive bacteria; assay: Microbiological and clinical cure after two-stage exchange with a single 1,500 mg dose; format: in vivo, human
# [5] = cited from earlier work
# Description: Our observations were best described by a one-compartment model, which is in accordance with the sparse data gathered from routine clinical practice ([40]). […] A potential explanation is that the studies that report higher CL were performed ...
# [6] = non-parametric bootstrap n = 1,000
# [7] = one-compartment model, total concentrations, 18 patients with CPJI, single 1,500 mg i.v.
structure (smiles),measurement,setting,value
CN[C@H]1C(=O)N[C@@H]2Cc3ccc(cc3)Oc3cc4cc(c3O[C@@H]3O[C@H](C(=O)O)[C@@H](O)[C@H](O)[C@H]3NC(=O)CCCCCCCCC(C)C)Oc3ccc(cc3Cl)[C@@H](O)[C@@H]3NC(=O)[C@H](NC(=O)[C@@H]4NC(=O)[C@@H](NC2=O)c2cc(cc(O)c2Cl)Oc2cc1ccc2O)c1ccc(O)c(c1)-c1c(O[C@H]2O[C@H](CO)[C@@H](O)[C@H](O)[C@@H]2O)cc(O)cc1[C@@H](C(=O)NCCCN(C)C)NC3=O [dalbavancin],Measured amount in homogenized cortical bone,[1],4.1 µg/g
same,level at 336 h,clinical,58500 ng/mL
same,level at 504 h,clinical,29700 ng/mL
same,level at 672 h,clinical,13300 ng/mL
same,"CL, clearance, bootstrap median (95% CI)",[2]; [6],0.037 (0.031–0.043) L/h
same,"V, volume of distribution, bootstrap median (95% CI)",[2]; [6],18.0 (16.0–20.3) L
same,"CL, clearance, estimate (% RSE)",[2]; [7],0.036 (8.2 %) [12.6%] L/h
same,"V, volume of distribution, estimate (% RSE)",[2]; [7],17.9 (6.2 %) [18.1%] L
same,Adverse events,[3],No adverse events were reported
same,Clinical failures or relapses,[4]; median follow-up of 693 days (IQI 630–824) after the second-stage procedure,no clinical failures or relapses
same,Second-stage surgery isolates,"[4]; patient 2, hip, first-stage S. lugdunensis, after Daptomycin (4)-Cefazolin (7) days",No growth
same,Second-stage surgery isolates,"[4]; patient 3, hip, first-stage E. faecalis, after Daptomycin (4)-Ampicillin (7) days",No growth
same,Second-stage surgery isolates,"[4]; patient 4, hip, first-stage S. hominis, after Vancomycin (6)-Linezolid (9) days",No growth
same,Second-stage surgery isolates,"[4]; patient 5, hip, first-stage S. epidermidis, after Daptomycin (10) days",No growth
same,Second-stage surgery isolates,"[4]; patient 6, hip, first-stage S. epidermidis, after Vancomycin (13)-Daptomycin (3) days",No growth
same,Second-stage surgery isolates,"[4]; patient 7, shoulder, first-stage S. epidermidis, after Vancomycin (3)-Daptomycin (5) days",No growth
same,Second-stage surgery isolates,"[4]; patient 8, knee, first-stage C. acnes, after Vancomycin (8) days",No growth
same,Second-stage surgery isolates,"[4]; patient 9, hip, first-stage S. epidermidis, after Vancomycin (20) days",No growth
same,Second-stage surgery isolates,"[4]; patient 10, hip, first-stage S. epidermidis, C. acnes, after Vancomycin (3)-Daptomycin (9) days",No growth
same,Second-stage surgery isolates,"[4]; patient 11, knee, first-stage S. epidermidis, after Vancomycin (7) days",No growth
same,Second-stage surgery isolates,"[4]; patient 12, knee, first-stage C. acnes, after Vancomycin (3)-Linezolid (5) days",No growth
same,Second-stage surgery isolates,"[4]; patient 13, knee, first-stage S. epidermidis, after Vancomycin (10) days",No growth
same,Second-stage surgery isolates,"[4]; patient 14, knee, first-stage S. epidermidis, after Vancomycin (7)-Linezolid (5) days",No growth
same,Second-stage surgery isolates,"[4]; patient 15, hip, first-stage S. capitis, C. acnes, after Vancomycin (7)-Daptomycin (10) days",No growth
same,Second-stage surgery isolates,"[4]; patient 16, knee, first-stage S. capitis, S. pettenkoferi, after Vancomycin (5)-Daptomycin (7) days",No growth
same,Second-stage surgery isolates,"[4]; patient 17, shoulder, first-stage C. acnes, after Vancomycin (10) days",S. epidermidis S. hominis
same,Second-stage surgery isolates,"[4]; patient 18, hip, first-stage S. epidermidis, after Vancomycin (10)-Linezolid (13) days",No growth
same,Second-stage surgery isolates,"[4]; patient 19, hip, first-stage S. epidermidis, C. acnes, after Vancomycin (4)-Tedizolid (14) days",No growth
same,Second-stage surgery isolates,"[4]; patient 20, hip, first-stage S. epidermidis, after Daptomycin (12) days",No growth
same,Microbiological cure rate,"[4]; single 1,500 mg i.v. dose after median 11.5 days systemic antibiotics, vancomycin-gentamicin spacer, negative intraoperative cultures at second-stage surgery",94.7%
same,CL reported in healthy volunteers and patients with acute infections,[5],0.050 L/h
